For four molecules, Activity results are on record in ChEMBL document CHEMBL4392878, “Guaiane-Type Sesquiterpenoids from the Roots of Daphne genkwa and Evaluation of Their Neuroprotective Effects” (2019).

Holding throughout (format): functional
Experiment [1] concerns SH-SY5Y. The experiment can be described thus: Neuroprotective activity in human SH-SY5Y cells assessed as reduction in H2O2-induced cell damage by measuring cell viability level at 12.5 uM by MTT assay (reference value: 67.95%).
In experiment [2] the test system is SH-SY5Y. As to the kind of experiment: Neuroprotective activity in human SH-SY5Y cells assessed as reduction in H2O2-induced apoptosis by measuring viable cells level at 12.5 uM by annexin V-FITC and propidium iodide staining based flow cytometry (reference value: 76.7%). Background: A flow cytometer gives signals particle by particle.
The test system of experiment [3] is SH-SY5Y. The experiment can be described thus: Neuroprotective activity in human SH-SY5Y cells assessed as reduction in H2O2-induced apoptosis by measuring early apoptotic cells level at 12.5 uM by annexin V-FITC and propidium iodide staining based flow cytometry (reference value: 11.3%). The arrangement: scale not given: the % may be the effect or the level left.

For experiment [4], the system named is SH-SY5Y. The experiment can be described thus: Neuroprotective activity in human SH-SY5Y cells assessed as reduction in H2O2-induced apoptosis by measuring late apoptotic cells level at 12.5 uM by annexin V-FITC and propidium iodide staining based flow cytometry (reference value: 5.26%). The arrangement: scale not given: the % may be the effect or the level left.

Experiment [5] relates to SH-SY5Y. As to the kind of experiment: Neuroprotective activity in human SH-SY5Y cells assessed as reduction in H2O2-induced apoptosis by measuring necrotic cells level at 12.5 uM by annexin V-FITC and propidium iodide staining based flow cytometry (reference value: 6.69%). The arrangement: scale not given: the % may be the effect or the level left.
Experiment [6] concerns SH-SY5Y. As to the kind of experiment: Neuroprotective activity in human SH-SY5Y cells assessed as reduction in H2O2-induced cell damage by measuring cell viability level at 50 uM by MTT assay (reference value: 67.95%).

The structures appear in SMILES notation.

`CC1=C[C@@]2(O)OC(=O)C(C)=C2C[C@H]2[C@@H](C)CC[C@@]12O`: the Activity in experiment [1] stood at 75.64%; in experiment [2], 87.7%; in experiment [3], 4.25%; in experiment [4], 2.7%; in experiment [5] it was 5.37%.
As to `CC1=C(C[C@@H]2/C(=C(/C)CO)CC[C@@H]2C)C(=O)OC1`, the Activity was 79.94% in experiment [1]; 79.2% in experiment [2]; 5.41% in experiment [3]; 3.29% in experiment [4]; 12.1% in experiment [5].
In the case of `CC1=C2CC[C@H](C)[C@@H]2C[C@H]2C(=O)[C@@H]1OC[C@@]2(O)CO`, the Activity in experiment [1] came out at 79.34%; in experiment [2], 87.7%; in experiment [3] it was 4.19%; in experiment [4], 2.67%; in experiment [5], 5.41%.
In the case of `Cc1c(C)c2c(c(C)c1O)CCC(C)(C(=O)O)O2` (stereo unspecified) [TROLOX], the Activity in experiment [6] came to 78.65%.
